US20240270762A1, “PENICILLIN-BINDING PROTEIN INHIBITORS” (priority 2021, published 2024)

Biological target: T1, PBP3 from Escherichia coli (K-12) (Escherichia coli, UniProt P0AD68)
T1 construct: made in house
Experiment: Bocillin-FL fluorescence polarization competition binding, E. coli PBP3
Method in brief: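 Purified PBP was preincubated with inhibitor (E. coli PBP3 1.5 μM, 30 min; P. aeruginosa PBP3 0.75 μM, A. baumannii PBP3 0.2 μM and PBP1a 1 μM, 15 min), then Bocillin-FL (0.1 μM; 0.05 μM for PBP1a) added and FP read up to 60 min. EC50 = 50% loss of bound probe.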

T1 sequence (P0AD68 1-577): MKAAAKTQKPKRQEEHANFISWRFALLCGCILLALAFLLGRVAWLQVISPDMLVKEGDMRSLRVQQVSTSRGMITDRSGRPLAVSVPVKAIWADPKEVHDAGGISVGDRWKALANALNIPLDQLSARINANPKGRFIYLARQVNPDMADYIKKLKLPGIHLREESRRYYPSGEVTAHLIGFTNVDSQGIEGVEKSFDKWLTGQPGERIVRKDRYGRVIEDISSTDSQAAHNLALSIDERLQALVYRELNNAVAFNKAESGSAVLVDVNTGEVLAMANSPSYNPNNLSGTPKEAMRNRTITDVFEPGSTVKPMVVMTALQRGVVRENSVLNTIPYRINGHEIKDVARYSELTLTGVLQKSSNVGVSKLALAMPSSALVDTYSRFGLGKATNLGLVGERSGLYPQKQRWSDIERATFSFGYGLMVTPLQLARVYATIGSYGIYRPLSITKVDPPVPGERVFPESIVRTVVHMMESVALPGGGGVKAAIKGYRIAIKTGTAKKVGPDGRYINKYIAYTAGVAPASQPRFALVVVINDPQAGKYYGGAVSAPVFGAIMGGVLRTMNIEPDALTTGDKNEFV

| Structure (SMILES) | EC50 [µM] |
| --- | --- |
| CC(=O)N1CCC[C@@H]1C(=O)N[C@H](C(=O)N[C@H]1Cc2cccc(C(=O)O)c2OB1O)c1ccc(P(=O)(O)O)cc1 [Example 33, (3R)-3-(2-((R)-1-acetylpyrrolidine-2-carboxamido)-2-(4-phosphonophenyl)acetamido)-2-hydroxy-3,4-dihydro-2H-benzo[e][1,2]oxaborinine-8-carboxylic acid] | 50 to 250 |
| CS(=O)(=O)N1CCC[C@@H]1C(=O)N[C@H](C(=O)N[C@H]1Cc2cccc(C(=O)O)c2OB1O)c1ccc(P(=O)(O)O)cc1 [Example 34, (R)-2-hydroxy-3-((S)-2-((R)-1-(methylsulfonyl)pyrrolidine-2-carboxamido)-2-(4-phosphonophenyl)acetamido)-3,4-dihydro-2H-benzo[e][1,2]oxaborinine-8-carboxylic acid] | 50 to 250 |
| CS(=O)(=O)N1CCC[C@@H]1C(=O)N[C@@H](C(=O)N[C@H]1Cc2cccc(C(=O)O)c2OB1O)c1ccc(P(=O)(O)O)cc1 [Example 35, (R)-2-hydroxy-3-((R)-2-((R)-1-(methylsulfonyl)pyrrolidine-2-carboxamido)-2-(4-phosphonophenyl)acetamido)-3,4-dihydro-2H-benzo[e][1,2]oxaborinine-8-carboxylic acid] | 10 to 50 |
| O=C(O)c1cccc2c1OB(O)[C@@H](NC(=O)[C@@H](NC(=O)N1CCCCC1=O)c1ccc(P(=O)(O)O)cc1)C2 [Example 36, (R)-2-hydroxy-3-((S)-2-(2-oxopiperidine-1-carboxamido)-2-(4-phosphonophenyl)acetamido)-3,4-dihydro-2H-benzo[39e][1,2]oxaborinine-8-carboxylic acid] | 50 to 250 |
| O=C(O)c1cccc2c1OB(O)[C@@H](NC(=O)[C@H](NC(=O)N1CCCCC1=O)c1ccc(P(=O)(O)O)cc1)C2 [Example 37, (R)-2-hydroxy-3-((R)-2-(2-oxopiperidine-1-carboxamido)-2-(4-phosphonophenyl)acetamido)-3,4-dihydro-2H-benzo[e][1,2]oxaborinine-8-carboxylic acid] | < 10 |
| CN1CCCN(C(=O)NC(C(=O)N[C@H]2Cc3cccc(C(=O)O)c3OB2O)c2ccc(P(=O)(O)O)cc2)C1=O (stereo partly drawn) [Example 38, (3R)-2-hydroxy-3-(2-(3-methyl-2-oxohexahydropyrimidine-1-carboxamido)-2-(4-phosphonophenyl)acetamido)-3,4-dihydro-2H-benzo[e][1,2]oxaborinine-8-carboxylic acid] | 10 to 50 |
| O=C(O)c1cccc2c1OB(O)[C@@H](NC(=O)[C@@H](NC(=O)N1CCNC1=O)c1ccc(P(=O)(O)O)cc1)C2 [Example 39, (R)-2-hydroxy-3-((S)-2-(2-oxoimidazolidine-1-carboxamido)-2-(4-phosphonophenyl)acetamido)-3,4-dihydro-2H-benzo[e][1,2]oxaborinine-8-carboxylic acid] | 50 to 250 |
| O=C(O)c1cccc2c1OB(O)[C@@H](NC(=O)[C@H](NC(=O)N1CCNC1=O)c1ccc(P(=O)(O)O)cc1)C2 [Example 40, (R)-2-hydroxy-3-((R)-2-(2-oxoimidazolidine-1-carboxamido)-2-(4-phosphonophenyl)acetamido)-3,4-dihydro-2H-benzo[e][1,2]oxaborinine-8-carboxylic acid] | < 10 |
| CN1CCN(C(=O)NC(C(=O)N[C@H]2Cc3cccc(C(=O)O)c3OB2O)c2ccc(P(=O)(O)O)cc2)C1=O (stereo partly drawn) [Example 41, (3R)-2-hydroxy-3-(2-(3-methyl-2-oxoimidazolidine-1-carboxamido)-2-(4-phosphonophenyl)acetamido)-3,4-dihydro-2H-benzo[e][1,2]oxaborinine-8-carboxylic acid] | < 10 |
| CCN1CCN(C(=O)NC(C(=O)N[C@H]2Cc3cccc(C(=O)O)c3OB2O)c2ccc(P(=O)(O)O)cc2)C1=O (stereo partly drawn) [Example 42, (3R)-3-(2-(3-ethyl-2-oxoimidazolidine-1-carboxamido)-2-(4-phosphonophenyl)acetamido)-2-hydroxy-3,4-dihydro-2H-benzo[e][1,2]oxaborinine-8-carboxylic acid] | < 10 |
